Results taken from patent publication US11555015B2, “Compounds useful in the treatment of autoimmune and inflammatory disorders” (Arena Pharmaceuticals, Inc., priority 2018, dated 2023).

Target: S1P1 (Homo sapiens, UniProt P21453)
Experiment: Beta arrestin assay (in vitro S1P1 activity)
Type: cell-based
Conditions: in vitro beta-arrestin agonist assay
Protocol: The in vitro S1P1 activity was determined in the beta arrestin assay.

S1P1, sequence (P21453 whole entry, species assumed): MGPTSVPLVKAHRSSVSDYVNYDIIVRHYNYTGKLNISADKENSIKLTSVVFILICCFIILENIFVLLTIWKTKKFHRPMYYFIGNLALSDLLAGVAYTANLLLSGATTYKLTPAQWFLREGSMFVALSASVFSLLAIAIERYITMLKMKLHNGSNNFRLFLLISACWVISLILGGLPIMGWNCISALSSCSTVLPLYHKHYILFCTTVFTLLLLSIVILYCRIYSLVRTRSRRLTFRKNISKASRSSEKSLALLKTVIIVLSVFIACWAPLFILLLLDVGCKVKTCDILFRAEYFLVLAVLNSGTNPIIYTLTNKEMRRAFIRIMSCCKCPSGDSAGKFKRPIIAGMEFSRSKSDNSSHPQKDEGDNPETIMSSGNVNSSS

EC50 | Compound
3.66 nM | O=C(O)CC1CCc2c1[nH]c1ccc(OCc3ccc(C4CCCC4O)c(C(F)(F)F)c3)cc21 (mixture of isomers) [Compound 4, 2-(7-((4-(2-hydroxycyclopentyl)-3-(trifluoromethyl)benzyl)oxy)-1,2,3,4-tetrahydrocyclopenta[b]indol-3-yl)acetic acid]
52.1 nM | O=C(O)CC1CCc2c1[nH]c1ccc(OCc3ccc(C4CCC(O)C4)c(C(F)(F)F)c3)cc21 (single isomer, unassigned) [Compound 2-1, 2-(7-((4-(3-Hydroxycyclopentyl)-3-(trifluoromethyl)benzyl)oxy)-1,2,3,4-tetrahydrocyclopenta[b]indol-3-yl)acetic Acid]
85.6 nM | O=C(O)CC1CCc2c1[nH]c1ccc(OCc3ccc(C4CCC(O)C4)c(C(F)(F)F)c3)cc21 (single isomer, unassigned) [Compound 2-2, 2-(7-((4-(3-Hydroxycyclopentyl)-3-(trifluoromethyl)benzyl)oxy)-1,2,3,4-tetrahydrocyclopenta[b]indol-3-yl)acetic Acid]
16.7 nM | O=C(O)CC1CCc2c1[nH]c1ccc(OCc3ccc(C4CCCC4O)c(C(F)(F)F)c3)cc21 (centres unmarked) [Compound 4-1, 2-(7-((4-(2-Hydroxycyclopentyl)-3-(trifluoromethyl)benzyl)oxy)-1,2,3,4-tetrahydrocyclopenta[b]indol-3-yl)acetic Acid]

Compound | EC50
O=C(C[C@H]1CCc2c1[nH]c1ccc(OCc3ccc(C4CCCC4)c(C(F)(F)F)c3)cc21)OC1O[C@H](C(=O)O)[C@@H](O)[C@H](O)[C@H]1O (stereo partly drawn) [Compound 1, (2S,3S,4S,5R)-6-(2-((R)-7-((4-cyclopentyl-3-(trifluoromethyl)benzyl)oxy)-1,2,3,4-tetrahydrocyclopenta[b]indol-3-yl)acetoxy)-3,4,5-trihydroxytetrahydro-2H-pyran-2-carboxylic acid] | 3.9 nM
